Experiments:
[1] = test system: GDF8 signaling (GDF pSMAD, MPC11); assay: AlphaScreen SureFire SMAD3 (p-Ser423/425) assay, inhibition of GDF8 signaling; type: cell-based; details: Mus musculus, MPC-11, inhibition of GDF8 signaling, p-SMAD3 readout
[2] = test system: TGF-β signaling (TGF-β pSMAD, MPC-11); assay: AlphaScreen SureFire SMAD3 (p-Ser423/425) assay, inhibition of TGF-β signaling; type: cell-based; details: Mus musculus, MPC-11, inhibition of TGF-β signaling, p-SMAD3 readout

Compound `Cc1nc(-c2ccc(F)c(F)c2)c(-c2ccc3ncsc3c2)[nH]1` [Compound 86, 6-(4-(3,4-Difluorophenyl)-2-methyl-1H-imidazol-5-yl)benzo[d]thiazole] has an IC50 [1] of 220 nM and an IC50 [2] of 1280 nM.
With `CCc1nc(-c2cccc(F)c2)c(-c2ccc3ncsc3c2)[nH]1` [Compound 137, 6-(2-Ethyl-4-(3-fluorophenyl)-1H-imidazol-5-yl)benzo[d]thiazole] the IC50 [1] was 570 nM and the IC50 [2] was 2540 nM.
In the case of `Cc1cccc(-c2ncsc2-c2ccc3[nH]ncc3c2)c1` [Compound 154, 5-(1H-indazol-5-yl)-4-(m-tolyl)thiazole], the IC50 [1] is reported as 14.5 nM and the IC50 [2] is reported as 116 nM.
`CCc1nc(-c2ccc(F)c(C)c2)c(-c2ccc3nccn3c2)[nH]1` [Compound 110, 6-(2-Ethyl-4-(4-fluoro-3-methylphenyl)-1H-imidazol-5-yl)imidazo[1,2-a]pyridine] was tested, and the IC50 [1] was 250 nM and the IC50 [2] was 1050 nM.
For `Cc1nc(-c2cc(F)c(F)c(F)c2)c(-c2ccc3ncsc3c2)[nH]1` [Compound 93, 6-(2-Methyl-4-(3,4,5-trifluorophenyl)-1H-imidazol-5-yl)benzo[d]thiazole], the IC50 [1] was 300 nM and the IC50 [2] was 2340 nM.
In the case of `Cn1cnc2ccc(-c3[nH]cnc3-c3ccc(F)cc3)cc21` [Compound 12, 6-(4-(4-Fluorophenyl)-1H-imidazol-5-yl)-1-methyl-1H-benzo[d]imidazole], the IC50 [1] is reported as 130 nM and the IC50 [2] is reported as 270 nM.
`Fc1ccc(-c2nc[nH]c2-c2ccc3ncccc3c2)cc1F` [Compound 36, 6-(4-(3,4-Difluorophenyl)-1H-imidazol-5-yl)quinoline] gave an IC50 [1] of 500 nM and an IC50 [2] of 1480 nM.
With `Fc1ccc(-c2nc[nH]c2-c2ccc3nccn3c2)cc1` [Compound 14, 6-(4-(4-Fluorophenyl)-1H-imidazol-5-yl)imidazo[1,2-a]pyridine] the IC50 [1] was 610 nM and the IC50 [2] was 1820 nM.
Compound `Cc1cccc(-c2nc(C)n(C)c2-c2ccc3ncsc3c2)c1` [Compound 59, 6-(1,2-Dimethyl-4-(m-tolyl)-1H-imidazol-5-yl)benzo[d]thiazole] has an IC50 [1] of 690 nM and an IC50 [2] of 6750 nM.
In the case of `Cc1nc(-c2cc(F)c(F)c(F)c2)c(-c2ccc3ncnn3c2)[nH]1` [Compound 92, 6-(2-Methyl-4-(3,4,5-trifluorophenyl)-1H-imidazol-5-yl)-[1,2,4]triazolo[1,5-a]pyridine], the IC50 [1] is reported as 470 nM and the IC50 [2] is reported as 2270 nM.
With `CCc1nc(-c2cccc(Cl)c2)c(-c2ccc3[nH]ncc3c2)[nH]1` [Compound 124, 5-(4-(3-Chlorophenyl)-2-ethyl-1H-imidazol-5-yl)-1H-indazole] the IC50 [1] was 540 nM and the IC50 [2] was 1340 nM.
With `Cc1nc(-c2cc(F)c(F)c(F)c2)c(-c2ccc3nccn3c2)[nH]1` [Compound 94, 6-(2-Methyl-4-(3,4,5-trifluorophenyl)-1H-imidazol-5-yl)imidazo[1,2-a]pyridine] the IC50 [1] was 580 nM and the IC50 [2] was 2910 nM.
`Fc1ccc(-c2nc(C(F)(F)F)[nH]c2-c2ccc3ncnn3c2)cc1` [Compound 151, 6-(4-(4-Fluorophenyl)-2-(trifluoromethyl)-1H-imidazol-5-yl)-[1,2,4]triazolo[1,5-a]pyridine] was tested, and the IC50 [1] was 590 nM and the IC50 [2] was 1400 nM.
With `Nc1nc(-c2cccc(C(F)(F)F)c2)c(-c2ccc3nccn3c2)s1` [Compound 171, 5-(imidazo[1,2-a]pyridin-6-yl)-4-(3-(trifluoromethyl)phenyl)thiazol-2-amine] the IC50 [1] was 109 nM and the IC50 [2] was 423 nM.
Compound `Nc1nc(-c2cccc(Cl)c2)c(-c2ccc3cn[nH]c3c2)s1` [Compound 172, 4-(3-chlorophenyl)-5-(1H-indazol-6-yl)thiazol-2-amine] has an IC50 [1] of 121 nM and an IC50 [2] of 909 nM.
`Cn1cnc(-c2ccc(F)c(F)c2)c1-c1ccc2ncn(C)c2c1` [Compound 66, 6-(4-(3,4-Difluorophenyl)-1-methyl-1H-imidazol-5-yl)-1-methyl-1H-benzo[d]imidazole] showed an IC50 [1] of 520 nM and an IC50 [2] of 980 nM.
Work on `Cc1cc(-c2nc(N)sc2-c2ccc3[nH]ncc3c2)ccc1F` [Compound 160, 4-(4-fluoro-3-methylphenyl)-5-(1H-indazol-5-yl)thiazol-2-amine] yielded an IC50 [1] of 38.5 nM and an IC50 [2] of 99.8 nM.
`Cn1cnc(-c2ccc(F)cc2)c1-c1ccc2[nH]ncc2c1` [Compound 48, −(4-(4-Fluorophenyl)-1-methyl-1H-imidazol-5-yl)-1H-indazole] was tested, and the IC50 [1] was 60 nM and the IC50 [2] was 250 nM.
`Nc1nc(-c2cccc(C(F)(F)F)c2)c(-c2ccc3nccnc3c2)s1` [Compound 180, 5-(quinoxalin-6-yl)-4-(3-(trifluoromethyl)phenyl)thiazol-2-amine] was tested, and the IC50 [1] was 301 nM and the IC50 [2] was 621 nM.
Work on `Clc1cccc(-c2nc[nH]c2-c2ccc3cn[nH]c3c2)c1` [Compound 23, 6-(4-(3-Chlorophenyl)-1H-imidazol-5-yl)-1H-indazole] yielded an IC50 [1] of 10 nM and an IC50 [2] of 30 nM.
Compound `CCc1nc(-c2cc(C)cc(F)c2)c(-c2ccc3nccnc3c2)[nH]1` [Compound 147, 6-(2-Ethyl-4-(3-fluoro-5-methylphenyl)-1H-imidazol-5-yl)quinoxaline] has an IC50 [1] of 550 nM and an IC50 [2] of 2210 nM.
`CCc1nc(-c2cccc(C)c2)c(-c2ccc3ncnn3c2)[nH]1` [Compound 115, 6-(2-Ethyl-4-(m-tolyl)-1H-imidazol-5-yl)-[1,2,4]triazolo[1,5-a]pyridine] was tested, and the IC50 [1] was 160 nM and the IC50 [2] was 750 nM.
With `CCc1nc(-c2ccc(F)c(C)c2)c(-c2ccc3ncnn3c2)[nH]1` [Compound 108, 6-(2-Ethyl-4-(4-fluoro-3-methylphenyl)-1H-imidazol-5-yl)-[1,2,4]triazolo[1,5-a]pyridine] the IC50 [1] was 80 nM and the IC50 [2] was 400 nM.
In the case of `Cc1cccc(-c2ncn(C)c2-c2ccc3nccnc3c2)c1` [Compound 47, 6-(1-Methyl-4-(m-tolyl)-1H-imidazol-5-yl)quinoxaline], the IC50 [1] is reported as 180 nM and the IC50 [2] is reported as 660 nM.
`Cc1cccc(-c2ncn(C)c2-c2ccc3[nH]ncc3c2)c1` [Compound 41, 5-(1-Methyl-4-(m-tolyl)-1H-imidazol-5-yl)-1H-indazole] showed an IC50 [1] of 20 nM and an IC50 [2] of 60 nM.
In the case of `Clc1ccc(-c2nc[nH]c2-c2ccc3[nH]ncc3c2)cc1` [Compound 6, 5-(4-(4-Chlorophenyl)-1H-imidazol-5-yl)-1H-indazole], the IC50 [1] is reported as 160 nM and the IC50 [2] is reported as 620 nM.
`Cc1nc(-c2cc(F)cc(F)c2)c(-c2ccc3[nH]ncc3c2)[nH]1` [Compound 148, 5-(4-(3,5-Difluorophenyl)-2-methyl-1H-imidazol-5-yl)-1H-indazole] was tested, and the IC50 [1] was 730 nM and the IC50 [2] was 2840 nM.
`Cc1nc(-c2cccc(Cl)c2)c(-c2ccc3[nH]ncc3c2)[nH]1` [Compound 101, 5-(4-(3-Chlorophenyl)-2-methyl-1H-imidazol-5-yl)-1H-indazole] gave an IC50 [1] of 140 nM and an IC50 [2] of 500 nM.
`Nc1nc(-c2cccc(F)c2)c(-c2ccc3ncsc3c2)s1` [Compound 178, 5-(benzo[d]thiazol-6-yl)-4-(3-fluorophenyl)thiazol-2-amine] was tested, and the IC50 [1] was 252 nM and the IC50 [2] was 1100 nM.
For `Cc1cccc(-c2ncn(C)c2-c2ccc3ncsc3c2)c1` [Compound 44, 6-(1-Methyl-4-(m-tolyl)-1H-imidazol-5-yl)benzo[d]thiazole], the IC50 [1] was 180 nM and the IC50 [2] was 720 nM.
In the case of `Cc1nc(-c2ccc(F)cc2)c(-c2ccc3ncn(C)c3c2)[nH]1` [Compound 79, 6-(4-(4-Fluorophenyl)-2-methyl-1H-imidazol-5-yl)-1-methyl-1H-benzo[d]imidazole], the IC50 [1] is reported as 110 nM and the IC50 [2] is reported as 850 nM.
Compound `Cc1cc(-c2nc(N)sc2-c2ccc3ncsc3c2)ccc1F` [Compound 162, 5-(benzo[d]thiazol-6-yl)-4-(4-fluoro-3-methylphenyl)thiazol-2-amine] has an IC50 [1] of 52.3 nM and an IC50 [2] of 127 nM.
`CCc1nc(-c2ccc(F)cc2)c(-c2ccc3ncsc3c2)[nH]1` [Compound 122, 6-(2-Ethyl-4-(4-fluorophenyl)-1H-imidazol-5-yl)benzo[d]thiazole] was tested, and the IC50 [1] was 580 nM and the IC50 [2] was 4530 nM.
`Nc1nc(-c2cccc(Cl)c2)c(-c2ccc3nccnc3c2)s1` [Compound 169, 4-(3-chlorophenyl)-5-(quinoxalin-6-yl)thiazol-2-amine] gave an IC50 [1] of 95.1 nM and an IC50 [2] of 236 nM.
For `Cc1cc(-c2ncsc2-c2ccc3nccn3c2)ccc1F` [Compound 167, 4-(4-fluoro-3-methylphenyl)-5-(imidazo[1,2-a]pyridin-6-yl)thiazole], the IC50 [1] was 78 nM and the IC50 [2] was 215 nM.
`Fc1ccc(-c2ncsc2-c2ccc3ncsc3c2)cc1` [Compound 181, 6-(4-(4-fluorophenyl)thiazol-5-yl)benzo[d]thiazole] gave an IC50 [1] of 336 nM and an IC50 [2] of 4550 nM.
With `CCc1nc(-c2cccc(Cl)c2)c(-c2ccc3ncnn3c2)[nH]1` [Compound 125, 6-(4-(3-Chlorophenyl)-2-ethyl-1H-imidazol-5-yl)-[1,2,4]triazolo[1,5-a]pyridine] the IC50 [1] was 50 nM and the IC50 [2] was 120 nM.
With `CCc1nc(-c2ccc(F)c(F)c2)c(-c2ccc3nccn3c2)[nH]1` [Compound 134, 6-(4-(3,4-Difluorophenyl)-2-ethyl-1H-imidazol-5-yl)imidazo[1,2-a]pyridine] the IC50 [1] was 870 nM and the IC50 [2] was 2540 nM.
`Fc1ccc(-c2nc[nH]c2-c2ccc3ncsc3c2)cc1` [Compound 13, 6-(4-(4-Fluorophenyl)-1H-imidazol-5-yl)benzo[d]thiazole] was tested, and the IC50 [1] was 120 nM and the IC50 [2] was 380 nM.
`Cc1nc(-c2ccc(F)c(C)c2)c(-c2ccc3[nH]ncc3c2)[nH]1` [Compound 71, 5-(4-(4-Fluoro-3-methylphenyl)-2-methyl-1H-imidazol-5-yl)-1H-indazole] showed an IC50 [1] of 90 nM and an IC50 [2] of 800 nM.
`Nc1nc(-c2cccc(F)c2)c(-c2ccc3nccn3c2)s1` [Compound 187, 4-(3-fluorophenyl)-5-(imidazo[1,2-a]pyridin-6-yl)thiazol-2-amine] showed an IC50 [1] of 481 nM and an IC50 [2] of 3100 nM.
With `Cc1nc(-c2ccc(F)c(F)c2)c(-c2ccc3cn[nH]c3c2)[nH]1` [Compound 84, 6-(4-(3,4-Difluorophenyl)-2-methyl-1H-imidazol-5-yl)-1H-indazole] the IC50 [1] was 320 nM and the IC50 [2] was 2900 nM.
For `CCc1nc(-c2ccc(F)cc2)c(-c2ccc3ncnn3c2)[nH]1` [Compound 121, 6-(2-Ethyl-4-(4-fluorophenyl)-1H-imidazol-5-yl)-[1,2,4]triazolo[1,5-a]pyridine], the IC50 [1] was 460 nM and the IC50 [2] was 2070 nM.
